This note sets out measurements from ChEMBL document CHEMBL4359918, “Discovery of tissue selective liver X receptor agonists for the treatment of atherosclerosis without causing hepatic lipogenesis” (Eur J Med Chem, 2019).

Data set [1] deals with Mus musculus. The experiment in a line: Induction of hepatic steatosis in C57BL/6 mouse assessed as accumulation of serum triglyceride level at 50 mg/kg/day, ig administered for 7 days. In kind it is organism-based. The note with it: in vivo, po, 168 h.
The test system of data set [2] is Mus musculus. The experiment in a line: Increase in hepatic triglyceride level in high fat diet-induced C57BL/6 mouse model of hypercholesterolemia at 20 mg/kg, po administered for 12 weeks. In kind it is ADME, organism-based. The note with it: in vivo, 2016 h.
Data set [3] is described as follows: Toxicity in high fat diet-induced C57BL/6 mouse model of hypercholesterolemia assessed as reduction in liver weight at 20 mg/kg, po administered for 12 weeks by H and E staining-based assay. In kind it is organism-based. The note with it: in vivo, 2016 h.
The test system of data set [4] is Mus musculus. In words: Induction of hepatic steatosis in C57BL/6 mouse assessed as accumulation of hepatic triglyceride level at 50 mg/kg/day, ig administered for 7 days. As to conditions: in vivo, po, 168 h. It counts as organism-based.
The target in data set [5] is T1, LXRalpha (Oxysterols receptor LXR-alpha) (Homo sapiens, UniProt Q13133).
T1 sequence (Q13133 whole entry): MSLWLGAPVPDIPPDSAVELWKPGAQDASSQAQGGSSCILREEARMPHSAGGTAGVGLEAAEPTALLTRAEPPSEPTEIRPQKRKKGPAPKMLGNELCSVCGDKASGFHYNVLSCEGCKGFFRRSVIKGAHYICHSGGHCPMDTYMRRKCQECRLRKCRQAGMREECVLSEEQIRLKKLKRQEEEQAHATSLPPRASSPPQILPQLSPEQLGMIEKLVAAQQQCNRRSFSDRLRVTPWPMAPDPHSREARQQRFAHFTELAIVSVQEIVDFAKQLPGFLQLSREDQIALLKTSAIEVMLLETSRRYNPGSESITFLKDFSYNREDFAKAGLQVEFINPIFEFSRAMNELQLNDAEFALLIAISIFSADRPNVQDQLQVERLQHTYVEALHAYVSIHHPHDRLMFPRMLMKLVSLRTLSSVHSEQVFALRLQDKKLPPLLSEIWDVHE
In words: Agonist activity at human LXRalpha transfected in HEK293T cells at 10 uM incubated for 20 hrs by luciferase reporter gene assay relative to control. It counts as cell-based. As to conditions: HEK293T cells transfected with human LXRalpha, read-out: FC. A general note: A reporter such as luciferase makes a cellular process visible.

Data set [6] addresses T2, Oxysterols receptor LXR-beta (Rattus norvegicus) (UniProt Q62755).
T2 sequence (whole entry): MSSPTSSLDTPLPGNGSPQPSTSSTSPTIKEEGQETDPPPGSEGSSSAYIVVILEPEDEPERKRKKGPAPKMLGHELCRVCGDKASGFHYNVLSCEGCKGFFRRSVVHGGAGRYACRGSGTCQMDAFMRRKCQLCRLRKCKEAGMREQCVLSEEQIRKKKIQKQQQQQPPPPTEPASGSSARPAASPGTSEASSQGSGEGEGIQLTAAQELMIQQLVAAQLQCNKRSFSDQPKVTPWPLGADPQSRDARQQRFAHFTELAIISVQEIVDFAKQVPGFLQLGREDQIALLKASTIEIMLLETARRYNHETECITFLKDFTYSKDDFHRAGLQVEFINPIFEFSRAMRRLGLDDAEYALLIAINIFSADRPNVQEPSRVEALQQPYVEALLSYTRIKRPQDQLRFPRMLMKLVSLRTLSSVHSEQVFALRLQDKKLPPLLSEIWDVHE
The experiment in a line: Agonist activity at rat LXRbeta transfected in HEK293T cells at 10 uM incubated for 20 hrs by luciferase reporter gene assay relative to control. It counts as cell-based.

A further data set has as its system HEK-293T. The experiment in a line: Cytotoxicity against HEK293T cells assessed as reduction in cell viability at […] incubated for 24 hrs by MTT assay. It counts as cell-based. The note with it: human. Background: Formazan colour is commonly taken as a measure of viable cells.
Data set [7] in a line: Selectivity index, ratio of compound effect for agonist activity at human LXRalpha to compound effect for agonist activity at […].
The species named for data set [8] is Mus musculus. The experiment in a line: Agonist activity at LXR in C57BL/6 mouse PBMC assessed as increase in ABCA1 mRNA expression at 10 uM incubated for 48 hrs by qPCR analysis. For orientation: Real-time PCR tracks product formation cycle by cycle.
Data set [9] can be described thus: Agonist activity at LXR in C57BL/6 mouse PBMC assessed as increase in sREBP-1c mRNA expression at 10 uM incubated for 48 hrs by qPCR analysis.
The nature of data set [10]: Agonist activity at LXR in mouse RAW264.7 cells assessed as increase in sREBP-1c mRNA expression at 10 uM incubated for 48 hrs by qPCR analysis. It counts as cell-based. As to conditions: raw264.7, 48 h.
Data set [11] relates to HepG2. In words: Lipid lowering activity in human HepG2 cells assessed as decrease in OA-induced TG accumulation at 10 uM incubated for 24 hrs. It counts as functional, cell-based.
Data set [12] relates to HepG2. In words: Effect on TG accumulation in human HepG2 cells at 10 uM incubated for 24 hrs. The note with it: hepg2, 24 h. In kind it is ADME, cell-based.
The target of data set [13] is Liver X receptor (Homo sapiens) (UniProt Q13133+P55055). The experiment in a line: Agonist activity at LXR in human HepG2 cells assessed as increase in ABCA1 mRNA expression at 10 uM incubated for 24 hrs by qPCR analysis. In kind it is cell-based.
A short description of data set [14]: Agonist activity at LXR in mouse 3T3L1 preadipocytes assessed as increase in ABCA1 mRNA expression at 10 uM by qPCR analysis. It counts as cell-based.
The nature of data set [15]: Agonist activity at LXR in mouse 3T3L1 preadipocytes assessed as increase in sREBP-1c mRNA expression at 10 uM by qPCR analysis. It counts as cell-based.
Data set [16] concerns the target T3, Oxysterols receptor LXR-alpha (Homo sapiens) (UniProt Q13133).
T3 sequence (whole entry): T1 sequence (Q13133 whole entry)
In words: Agonist activity at human LXRalpha transfected in HEK293T cells at 10 uM incubated for 20 hrs in presence of LXR antagonist SR9243 by luciferase reporter gene assay relative to control. It counts as cell-based.

Another data set deals with PBMC. In words: Anti-atherosclerotic activity in C57BL/6 mouse PBMC assessed as inhibition of ox-LDL induced lipid accumulation at 10 uM incubated for 48 hrs by ORO staining based microscopic analysis. It counts as functional, cell-based.
In data set [17] the test system is RAW264.7. The experiment in a line: Anti-atherosclerotic activity in mouse RAW264.7 cells assessed as inhibition of ox-LDL induced lipid accumulation at 10 uM incubated for 48 hrs by ORO staining based microscopic analysis. In kind it is functional, cell-based.
In data set [18] the test system is RAW264.7. In words: Agonist activity at LXR in mouse RAW264.7 cells assessed as increase in ABCA1 mRNA expression at 10 uM incubated for 48 hrs by qPCR analysis. In kind it is cell-based.
The test system of data set [19] is HepG2. The experiment in a line: Cytotoxicity against human HepG2 cells assessed as reduction in cell viability at 2 to 50 uM incubated for 24 hrs by MTT assay. It counts as cell-based. As to conditions: hepg2, 24 h.
For data set [20], the system named is 3T3-L1. In words: Anti-adipogenic activity in mouse 3T3L1 preadipocytes assessed as decrease in triglyceride accumulation. It counts as functional, cell-based.
The subject of data set [21] is 3T3-L1. In words: Anti-adipogenic activity in mouse 3T3L1 preadipocytes assessed as decrease in lipid accumulation by Oil Red O staining-based microscopic analysis. In kind it is functional, cell-based.
Data set [22] has as its system 3T3-L1. In words: Cytotoxicity against mouse 3T3L1 preadipocytes assessed as reduction in cell viability at 2 to 50 uM incubated for 24 hrs by MTT assay. The note with it: 3t3-l1, 24 h. It counts as cell-based.
The test system of data set [23] is RAW264.7. In words: Cytotoxicity against mouse RAW264.7 cells assessed as reduction in cell viability at 2 to 50 µM incubated for 24 hrs by MTT assay. It counts as cell-based. The note with it: raw264.7, 24 h.

Activity calls are given as the source filed them. The rule behind the calls is not given here.

Sequence of Liver X receptor (Homo sapiens) (P55055 whole entry, looked up, one chain of several): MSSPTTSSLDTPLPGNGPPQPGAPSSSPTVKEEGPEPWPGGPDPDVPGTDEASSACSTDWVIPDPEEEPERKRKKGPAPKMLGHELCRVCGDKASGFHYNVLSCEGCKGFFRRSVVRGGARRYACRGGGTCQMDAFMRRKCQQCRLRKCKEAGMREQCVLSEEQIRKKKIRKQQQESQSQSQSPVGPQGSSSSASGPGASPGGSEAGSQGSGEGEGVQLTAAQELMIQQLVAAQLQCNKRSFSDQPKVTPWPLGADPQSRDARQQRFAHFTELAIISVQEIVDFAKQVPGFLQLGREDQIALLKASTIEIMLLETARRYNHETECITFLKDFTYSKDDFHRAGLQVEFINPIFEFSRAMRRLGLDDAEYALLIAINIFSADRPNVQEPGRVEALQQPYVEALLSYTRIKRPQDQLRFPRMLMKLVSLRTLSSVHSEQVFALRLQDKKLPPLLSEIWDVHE

With `O=S(=O)(c1ccccc1)N(CC(F)(F)F)c1ccc(C(O)(C(F)(F)F)C(F)(F)F)cc1` [T091317], the Activity result (in the data set on Mus musculus [1]; with Mus musculus [2]; in [3]; in the data set on Mus musculus [4]) was “Toxic” throughout.

In the case of `CC(=O)O[C@H]1CC[C@@]2(C)C(=CC[C@H]3[C@@H]4CC[C@H]([C@H](C)CCC(=O)C(C)C)[C@@]4(C)CC[C@@H]32)C1`, the fold induction at 20 h, 10 µM in data set [5] turned out to be 2.63. The fold change (FC) in [6] was found to be 3. Besides, the Activity entry in the data set on HEK-293T was “Non-Toxic”. In data set [7], the Ratio stood at 1.14.

As for `O=C(O)Cc1cccc(OCCCN(Cc2cccc(C(F)(F)F)c2Cl)CC(c2ccccc2)c2ccccc2)c1`, the fold induction at 20 h, 10 µM in data set [5] was 2.19. In data set [6], this molecule returned a fold change (FC) of 2.42. For the same molecule, the Ratio in [7] is 1.11. For the same molecule, the result (in the data set listed under Mus musculus [8]; in data set [13]) was Active. Besides, the Activity result in [9] is “Not Active”; in [10], “Not Active”; with HepG2 [12] it was “Toxic”; in data set [14], “Active”; in data set [15], “Active”. In the data set on HepG2 [11], the result was inactive.

`CC(C)C(=O)CC[C@@H](C)[C@H]1CC[C@H]2[C@@H]3CC=C4C[C@@H](O)CC[C@]4(C)[C@H]3CC[C@]12C`: in [5], the fold induction at 20 h, 10 µM came out at 2.36. Also, in data set [6], the fold change (FC) was determined as 3.85. The outcome in data set [16] was inactive. The Activity result in the data set with HEK-293T was “Non-Toxic”; in the data set with HepG2 [12], “Non-Toxic”; in the data set with HepG2 [19], “Non-Toxic”; in data set [14], “Active”; in data set [15], “Not Active”; with 3T3-L1 [22] it was “Non-Toxic”. Further, the Activity entry in the data set on RAW264.7 [23] was “Non-Toxic”. Moreover, the Ratio in data set [7] turned out to be 1.63. For the same molecule, the inhibition result in the data set on PBMC and with RAW264.7 [17] was “Active” each time. The result (in the data set on RAW264.7 [18]; in the data set listed under Mus musculus [8]; in the data set on HepG2 [11]; in data set [13]; with 3T3-L1 [20]; with 3T3-L1 [21]) was Active.
